Laboratory results as given in PubChem BioAssay (NCI).
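Cells were grown in 96-well plates and exposed to each compound for 48 hours at five concentrations; endpoints were interpolated linearly between bracketing concentrations, or set to the highest concentration if not reached. The concentration for 50% growth inhibition is given as GI50. TGI: total growth inhibition.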 Where a SMILES comes first, the peptide text is derived from it. [ ]: non-standard residue; d: D form. The star is where a group is joined. Decanoyl = CCCCCCCCCC(=O)*; Leu(ol) = CC(C)C[C@H](N)CO; Iva = CC[C@](C)(N)C(=O)O; Aib = CC(C)(N)C(=O)O

How the values were obtained:
Experiment in all cases: DTP human tumour cell line panel, 48 h
786-0 renal = test system: 786-0 renal
A498 renal = test system: A498 renal
A549 NSCLC = test system: A549 NSCLC
ACHN renal = test system: ACHN renal
BT-549 breast = test system: BT-549 breast
CAKI-1 renal = test system: CAKI-1 renal
CCRF-CEM leukemia = test system: CCRF-CEM leukemia
COLO 205 colon = test system: COLO 205 colon
DU-145 prostate = test system: DU-145 prostate
EKVX NSCLC = test system: EKVX NSCLC
HCC-2998 colon = test system: HCC-2998 colon
HCT-116 colon = test system: HCT-116 colon
HCT-15 colon = test system: HCT-15 colon
HL-60(TB) leukemia = test system: HL-60(TB) leukemia
HOP-62 NSCLC = test system: HOP-62 NSCLC
HOP-92 NSCLC = test system: HOP-92 NSCLC
HS 578T breast = test system: HS 578T breast
HT29 colon = test system: HT29 colon
IGROV1 ovarian = test system: IGROV1 ovarian
K-562 leukemia = test system: K-562 leukemia
KM12 colon = test system: KM12 colon
LOX IMVI melanoma = test system: LOX IMVI melanoma
M14 melanoma = test system: M14 melanoma
MALME-3M melanoma = test system: MALME-3M melanoma
MCF7 breast = test system: MCF7 breast
MDA-MB-231 breast = test system: MDA-MB-231 breast
MDA-MB-435 = test system: MDA-MB-435
MOLT-4 leukemia = test system: MOLT-4 leukemia
NCI-H226 lung = test system: NCI-H226 lung
NCI-H460 lung = test system: NCI-H460 lung
NCI-H522 lung = test system: NCI-H522 lung
NCI/ADR-RES ovarian = test system: NCI/ADR-RES ovarian
OVCAR-3 ovarian = test system: OVCAR-3 ovarian
OVCAR-4 ovarian = test system: OVCAR-4 ovarian
OVCAR-5 ovarian = test system: OVCAR-5 ovarian
OVCAR-8 ovarian = test system: OVCAR-8 ovarian
PC-3 prostate = test system: PC-3 prostate
RPMI-8226 leukemia = test system: RPMI-8226 leukemia
RXF 393 renal = test system: RXF 393 renal
SF-268 CNS = test system: SF-268 CNS
SF-295 CNS = test system: SF-295 CNS
SF-539 CNS = test system: SF-539 CNS
SK-MEL-2 melanoma = test system: SK-MEL-2 melanoma
SK-MEL-28 melanoma = test system: SK-MEL-28 melanoma
SK-MEL-5 melanoma = test system: SK-MEL-5 melanoma
SK-OV-3 ovarian = test system: SK-OV-3 ovarian
SN12C renal = test system: SN12C renal
SNB-19 CNS = test system: SNB-19 CNS
SNB-75 CNS = test system: SNB-75 CNS
SR leukemia = test system: SR leukemia
SW-620 colon = test system: SW-620 colon
T-47D breast = test system: T-47D breast
TK-10 renal = test system: TK-10 renal
UACC-257 melanoma = test system: UACC-257 melanoma
UACC-62 melanoma = test system: UACC-62 melanoma
UO-31 renal = test system: UO-31 renal

Which GI50 (786-0 renal) does the source give for `CCCCCCCCCC(=O)N[C@@](C)(CC)C(=O)N1CCC[C@H]1C(=O)N[C@@H](CC(C)C)C(=O)N[C@@](C)(CC)C(=O)N[C@@H](CCC(N)=O)C(=O)N[C@H](CCC(N)=O)C(=O)NC(C)(C)C(=O)NC(C)(C)C(=O)N[C@@H](CCC(N)=O)C(=O)N[C@H](CC(C)C)C(=O)N[C@H](CO)CC(C)C` (Decanoyl-[Iva]PL[Iva]Q[dQ][Aib][Aib]Q[dL][Leu(ol)]) here?
The GI50 was 2.48 µM.

What about the TGI (786-0 renal) of the same compound?
The TGI was 6.48 µM.

What about the GI50 (A498 renal) of the same compound?
Its GI50 is 2.75 µM.

And the TGI (A498 renal)?
Its TGI is 7.36 µM.

And the GI50 (A549 NSCLC)?
The GI50 was 4.93 µM.

And the TGI (A549 NSCLC)?
The TGI was 27 µM.

What about the GI50 (ACHN renal) of the same compound?
Its GI50 is 8.34 µM.

And the TGI (ACHN renal)?
Its TGI is 20.8 µM.

What about the GI50 (BT-549 breast) of the same compound?
The GI50 was 2.08 µM.

What about the TGI (BT-549 breast) of the same compound?
The TGI was 4.11 µM.

What about the GI50 (CAKI-1 renal) of the same compound?
Its GI50 is 6.6 µM.

And the TGI (CAKI-1 renal)?
Its TGI is 20.8 µM.

And the GI50 (CCRF-CEM leukemia)?
The GI50 was 2.01 µM.

And the TGI (CCRF-CEM leukemia)?
Its TGI is 4.49 µM.

And the GI50 (COLO 205 colon)?
The GI50 was 1.91 µM.

What about the TGI (COLO 205 colon) of the same compound?
Its TGI is 3.8 µM.

What about the GI50 (DU-145 prostate) of the same compound?
Its GI50 is 1.96 µM.

And the TGI (DU-145 prostate)?
Its TGI is 3.67 µM.

What about the GI50 (EKVX NSCLC) of the same compound?
Its GI50 is 2.2 µM.

And the TGI (EKVX NSCLC)?
Its TGI is 5.47 µM.

What about the GI50 (HCC-2998 colon) of the same compound?
Its GI50 is 2.15 µM.

And the TGI (HCC-2998 colon)?
Its TGI is 4.58 µM.

What about the GI50 (HCT-116 colon) of the same compound?
The GI50 was 3.3 µM.

What about the TGI (HCT-116 colon) of the same compound?
Its TGI is 12.1 µM.

What about the GI50 (HCT-15 colon) of the same compound?
Its GI50 is 7.72 µM.

What about the TGI (HCT-15 colon) of the same compound?
Its TGI is 22.5 µM.

And the GI50 (HL-60(TB) leukemia)?
Its GI50 is 2.23 µM.

And the TGI (HL-60(TB) leukemia)?
Its TGI is 6.26 µM.

What about the GI50 (HOP-62 NSCLC) of the same compound?
The GI50 was 2.25 µM.

What about the TGI (HOP-62 NSCLC) of the same compound?
Its TGI is 5.04 µM.

And the GI50 (HOP-92 NSCLC)?
The GI50 was 1.34 µM.

And the TGI (HOP-92 NSCLC)?
The TGI was 4.6 µM.

And the GI50 (HS 578T breast)?
Its GI50 is 2.1 µM.

And the TGI (HS 578T breast)?
The TGI was 5.5 µM.

What about the GI50 (HT29 colon) of the same compound?
The GI50 was 3.48 µM.

What about the TGI (HT29 colon) of the same compound?
The TGI was 14.8 µM.

What about the GI50 (IGROV1 ovarian) of the same compound?
The GI50 was 4.05 µM.

And the TGI (IGROV1 ovarian)?
Its TGI is 14.8 µM.

What about the GI50 (K-562 leukemia) of the same compound?
Its GI50 is 2.09 µM.

And the TGI (K-562 leukemia)?
The TGI was 4.37 µM.

And the GI50 (KM12 colon)?
The GI50 was 2.03 µM.

And the TGI (KM12 colon)?
Its TGI is 4.37 µM.

What about the GI50 (LOX IMVI melanoma) of the same compound?
Its GI50 is 1.97 µM.

What about the TGI (LOX IMVI melanoma) of the same compound?
Its TGI is 4.26 µM.

What about the GI50 (M14 melanoma) of the same compound?
Its GI50 is 1.93 µM.

And the TGI (M14 melanoma)?
Its TGI is 3.95 µM.

What about the GI50 (MALME-3M melanoma) of the same compound?
The GI50 was 2.12 µM.

And the TGI (MALME-3M melanoma)?
The TGI was 4.95 µM.

And the GI50 (MCF7 breast)?
The GI50 was 2.04 µM.

And the TGI (MCF7 breast)?
Its TGI is 4.38 µM.

What about the GI50 (MDA-MB-231 breast) of the same compound?
Its GI50 is 2.04 µM.

What about the TGI (MDA-MB-231 breast) of the same compound?
The TGI was 4.71 µM.

What about the GI50 (MDA-MB-435) of the same compound?
The GI50 was 1.86 µM.

What about the TGI (MDA-MB-435) of the same compound?
The TGI was 3.6 µM.

And the GI50 (MOLT-4 leukemia)?
Its GI50 is 2.09 µM.

What about the TGI (MOLT-4 leukemia) of the same compound?
The TGI was 4.43 µM.

And the GI50 (NCI-H226 lung)?
Its GI50 is 2.21 µM.

And the TGI (NCI-H226 lung)?
Its TGI is 5.2 µM.

And the GI50 (NCI-H460 lung)?
Its GI50 is 3.53 µM.

And the TGI (NCI-H460 lung)?
Its TGI is 11.8 µM.

What about the GI50 (NCI-H522 lung) of the same compound?
The GI50 was 2.06 µM.

What about the TGI (NCI-H522 lung) of the same compound?
Its TGI is 5.13 µM.

What about the GI50 (NCI/ADR-RES ovarian) of the same compound?
The GI50 was 5.59 µM.

What about the TGI (NCI/ADR-RES ovarian) of the same compound?
The TGI was 19.6 µM.

And the GI50 (OVCAR-3 ovarian)?
Its GI50 is 7.61 µM.

What about the TGI (OVCAR-3 ovarian) of the same compound?
Its TGI is 22.2 µM.

What about the GI50 (OVCAR-4 ovarian) of the same compound?
The GI50 was 12.7 µM.

What about the TGI (OVCAR-4 ovarian) of the same compound?
The TGI was 28.5 µM.

What about the GI50 (OVCAR-5 ovarian) of the same compound?
The GI50 was 3.38 µM.

And the TGI (OVCAR-5 ovarian)?
The TGI was 12.4 µM.

And the GI50 (OVCAR-8 ovarian)?
The GI50 was 1.91 µM.

And the TGI (OVCAR-8 ovarian)?
Its TGI is 4.17 µM.

What about the GI50 (PC-3 prostate) of the same compound?
Its GI50 is 1.79 µM.

And the TGI (PC-3 prostate)?
The TGI was 3.51 µM.

And the GI50 (RPMI-8226 leukemia)?
The GI50 was 2.33 µM.

What about the TGI (RPMI-8226 leukemia) of the same compound?
Its TGI is 5.06 µM.

What about the GI50 (RXF 393 renal) of the same compound?
The GI50 was 1.81 µM.

And the TGI (RXF 393 renal)?
The TGI was 3.63 µM.

What about the GI50 (SF-268 CNS) of the same compound?
The GI50 was 2.5 µM.

And the TGI (SF-268 CNS)?
Its TGI is 6.52 µM.

What about the GI50 (SF-295 CNS) of the same compound?
The GI50 was 1.76 µM.

What about the TGI (SF-295 CNS) of the same compound?
The TGI was 3.42 µM.

What about the GI50 (SF-539 CNS) of the same compound?
The GI50 was 1.98 µM.

What about the TGI (SF-539 CNS) of the same compound?
Its TGI is 4.21 µM.

And the GI50 (SK-MEL-2 melanoma)?
The GI50 was 2.76 µM.

What about the TGI (SK-MEL-2 melanoma) of the same compound?
Its TGI is 8.36 µM.

What about the GI50 (SK-MEL-28 melanoma) of the same compound?
The GI50 was 1.77 µM.

And the TGI (SK-MEL-28 melanoma)?
Its TGI is 3.3 µM.

What about the GI50 (SK-MEL-5 melanoma) of the same compound?
Its GI50 is 1.88 µM.

And the TGI (SK-MEL-5 melanoma)?
Its TGI is 3.56 µM.

And the GI50 (SK-OV-3 ovarian)?
Its GI50 is 5.03 µM.

And the TGI (SK-OV-3 ovarian)?
Its TGI is 18.9 µM.

What about the GI50 (SN12C renal) of the same compound?
Its GI50 is 2.29 µM.

What about the TGI (SN12C renal) of the same compound?
The TGI was 6.15 µM.

And the GI50 (SNB-19 CNS)?
Its GI50 is 2.08 µM.

And the TGI (SNB-19 CNS)?
The TGI was 4.66 µM.

What about the GI50 (SNB-75 CNS) of the same compound?
Its GI50 is 1.6 µM.

And the TGI (SNB-75 CNS)?
Its TGI is 4.15 µM.

What about the GI50 (SR leukemia) of the same compound?
Its GI50 is 1.94 µM.

What about the TGI (SR leukemia) of the same compound?
Its TGI is 4.32 µM.

What about the GI50 (SW-620 colon) of the same compound?
Its GI50 is 4.05 µM.

What about the TGI (SW-620 colon) of the same compound?
Its TGI is 15.2 µM.

What about the GI50 (T-47D breast) of the same compound?
The GI50 was 3.56 µM.

What about the TGI (T-47D breast) of the same compound?
Its TGI is 17.8 µM.

And the GI50 (TK-10 renal)?
The GI50 was 4.09 µM.

What about the TGI (TK-10 renal) of the same compound?
Its TGI is 16.7 µM.

And the GI50 (UACC-257 melanoma)?
The GI50 was 1.75 µM.

And the TGI (UACC-257 melanoma)?
The TGI was 3.46 µM.

And the GI50 (UACC-62 melanoma)?
Its GI50 is 1.99 µM.

And the TGI (UACC-62 melanoma)?
Its TGI is 4.91 µM.

And the GI50 (UO-31 renal)?
The GI50 was 3.58 µM.

And the TGI (UO-31 renal)?
Its TGI is 16.1 µM.
